Drawing on a melting point compilation (Tetko et al.; mined from patent text by program, amines drawn as free bases though some values may be those of a salt), this text covers melting point for 88 compounds.

Each structure is given as a SMILES string.

In turn, `O=C1OC(CCO)C(O)=C1OCc1ccccc1` (stereo not drawn) came in with a melting point of 98 to 99 °C.
As to `CC(=O)c1ccc(Oc2ccc(S(=O)(=O)C3CCCCC3)cn2)cc1`, the melting point fell in the range of 116 to 118 °C.
`CSc1c(C)[nH]c2c(C)cccc12`: the melting point lay within 32 to 33 °C.
As for `S=c1nc2ccccn2c(=S)n1-c1ccccn1`, the melting point lay in the range of 107 to 109 °C.
As to `Cc1c(N2CCC(n3cccc3)CC2)c(F)cn2c(=O)c(C(=O)O)cc(C3CC3)c12`, the melting point fell in the range of 268 to 269 °C.
`O=C1CNC(c2cc(Br)cc(-c3ccsc3)c2)=NN1CC(F)(F)F`: the melting point lay in the range of 167 to 169 °C.
`CN1Cc2c(c3ccccc3c3ccccc23)C1` yielded a melting point of 122 to 123 °C.
`COc1ccc(Cl)cc1-c1n[nH]c(=O)cc1NN`: the melting point is 285 to 290 °C.
`CN(C)C(=O)C1(C)CN(C(=O)Nc2ccc(Cl)cc2)N=C1c1ccc(Cl)cc1` (stereo not drawn) gave a melting point of 194 to 197 °C.
`O=C(NCCc1ccccc1Cl)c1c(Cl)ccc2nc(N3CCC(C(=O)O)CC3)ccc12`: the melting point lay in the range of 250 to 253 °C.
With `O=C(O)c1cn(-n2cnnc2)c2cc(F)c(F)cc2c1=O`, the melting point turned out to be 270 °C.
To `CC(C)(C)[C@@H](CO)NS(=O)(=O)c1ccc(Cl)cc1` belongs 128 to 130 °C; to `CC(=O)c1ccc2c(c1)ncn2-c1cccc(N2CCN(C(C)=NO)CC2)c1`, 193 to 195 °C.
Regarding `NC(=O)Cc1ccccc1OCCn1ccnc1`, the melting point lay in the range of 116 to 118 °C.
In turn, `CNCCSC1=Cc2ccccc2Sc2ccc(O)cc21` registered a melting point of 147 to 149 °C.
Compound `CCCCCCS(=O)(=O)c1ccc(Oc2ccc(Br)cc2)nc1` returned a melting point of 94 °C.
`O=S(=O)(NCCN1CCOCC1)C(F)(F)F` displayed a melting point of 106 to 108 °C.
As to `Cc1ncccc1NC(=NC#N)NC(NC(=O)Cc1ccc(Cl)cc1)C(C)(C)C` (stereo not drawn), the melting point is 180 to 181 °C.
To `NC(=O)c1cccc(Nc2ccncc2)c1` belongs 201 to 203 °C.
As for `CCON=C(C)C1CCC(=O)CC1=O` (stereo not drawn), the figure is 105 to 112 °C.
The compound `CCOC(=O)c1cn(-c2nc(NC(C)(C)CC(C)(C)C)ccc2F)c2c(Cl)c(F)c(F)cc2c1=O` yielded a melting point of 178 to 180 °C.
In turn, `CCC1CCC(Oc2cc(F)cc(C(=O)Nc3ccc(OCc4ccncc4)c4ccccc34)c2)CC1` (stereo not drawn) displayed a melting point of 93 to 95 °C.
`CN1CCN(C(=O)Nc2cccc3nc(NC4CCc5ccccc54)ccc23)CC1` (stereo not drawn) came in with a melting point of 142 °C.
As for `CC(C)CCOCc1cc(N2N=C(C(N)=O)NC2c2ccccc2)ccc1Cl` (stereo not drawn), the figure is 174 to 176 °C.
The compound `Cc1oc(-c2ccccc2)nc1CCOc1ccc(C=C2SC(=O)NC2=O)cn1` yielded a melting point of 195 to 196 °C.
To `CN(CC(=O)O)S(=O)(=O)c1ccc(-c2ccc(NC(=O)c3cc4ccccc4o3)cc2)cc1` belongs 226 to 228 °C; to `CC1(C)OC(=O)Nc2ccc(-c3cccc(CC#N)c3)cc21`, 188 to 190 °C.
As for `CC(Cc1ccc(OCC(N)=O)cc1)NCC(O)c1ccccc1` (stereo not drawn), the melting point lay within 158 to 162 °C.
As for `CCCCc1nn(-c2ccccc2C(F)(F)F)c(=O)n1Cc1ccc(-c2ccccc2S(N)(=O)=O)cc1`, the melting point fell in the range of 74 to 76 °C.
In turn, `COc1cccc2c1CCC(C=O)C2=O` (stereo not drawn) registered a melting point of 68 to 70 °C.
For the compound `C/C(C=O)=C\c1ccc([N+](=O)[O-])cc1`, the melting point is 112 to 114 °C.
As to `CC(=O)c1ccc2c(c1)C(C(=O)Nc1cccc(C(=O)Nc3ccc(Br)cc3)c1)C(=O)N2C` (stereo not drawn), the melting point lay within 234 to 236 °C.
Turning to `N=c1ccccn1COc1ccccc1Br`, the melting point fell in the range of 62 to 64 °C.
`CC(=O)Oc1c(C)c(C)c2c(c1C)CCC(C)(C(=O)N1CCN(c3cc(N4CCCC4)nc(N4CCCC4)n3)CC1)O2` (stereo not drawn) showed a melting point of 191 to 192 °C.
As for `O=C1Nc2ccccc2N(C(=O)Cc2ccccc2)c2cscc21`, the figure is 165 to 168 °C.
In the case of `COc1ccc(-c2ccc3c(C(=O)O)cccc3c2)cc1C12CC3CC(CC(C3)C1)C2`, the melting point worked out at 222 °C.
With `N#Cc1cc(NC(=O)c2ccn(-c3ccc(F)cc3)c2)ccc1N1CCCCC1`, the melting point lay within 195 to 196 °C.
As to `O=C(O)C(CC(=O)N1CC2CC=CCC2C1)Cc1ccccc1` (stereo not drawn), the melting point fell in the range of 128 to 132 °C.
The compound `C=C1C(O)CC(OC(C)=O)C2(C)C1CC1(C(C)(C)O)CC(O)C(C)=C1C(OC(=O)c1ccccc1)C2OC(C)=O` (stereo not drawn) came in with a melting point of 200 to 201 °C.
To `CSc1ccc(OC(=O)OCc2ccccc2Cl)cc1` belongs 49.5 to 50 °C; to `CC(c1cc(F)ccc1Oc1nc2ccc(-n3cc(-c4ccccc4)nn3)cc2cc1Cc1ccccc1)n1ccnc1` (stereo not drawn), 118 to 120 °C; to `Fc1ccc2c(c1)nc(/C=C/c1ccccc1)n2-c1ccccn1`, 134 to 135 °C.
As to `NS(=O)(=O)c1cc2c(s1)SC(CC(=O)O)C(=O)N2` (stereo not drawn), the melting point amounted to 240 °C.
`CC[Si](C#Cc1ccc2nc(-c3ncc[nH]3)nc(NCCOC)c2c1)(CC)CC` registered a melting point of 158 to 160 °C.
`C=CC(=O)OC1(C)CCCC2C3C=CC(C3)C21` (stereo not drawn): the melting point was 41 to 42 °C.
The compound `CCOC(=O)c1c(-c2ccccc2)c2c3ccccc3ccn2c1C` came in with a melting point of 119 to 121 °C.
The compound `CC(=Cc1c[nH]c2ccc3c(c12)CC(O)CO3)[N+](=O)[O-]` (stereo not drawn) yielded a melting point of 240 to 242 °C.
In turn, `CC(C)n1nc(-c2c(NCc3ccccc3)nc(N)nc2-c2ccc(F)cc2)ccc1=O` registered a melting point of 191 to 192 °C.
In turn, `COc1ccc2c(c1)C(C(=O)O)CCC2` (stereo not drawn) showed a melting point of 126 to 127 °C.
`CCCCCCCNC(=O)N(C)c1cccc(-c2ccc(C=CC(=O)O)c(F)c2)c1` came in with a melting point of 148 to 149 °C.
`CCNC(=O)c1cnn(-c2ccccc2)c1Br` gave a melting point of 158 to 160 °C.
The compound `Nc1nc(NCCC2=CCCCC2)nc2c1ncn2C1OC(CO)C(O)C1O` (stereo not drawn) returned a melting point of 135 to 138 °C.
`COc1cc2c(CCNC(C)=O)cn(C(C)=O)c2cc1Cl` had a melting point of 178 to 181 °C.
In the case of `CCCC(Oc1cccc(-c2noc(C)n2)c1)C(=O)O` (stereo not drawn), the melting point fell in the range of 98 to 100 °C.
The compound `CC(C)(CO)Oc1ccccc1` registered a melting point of 91 to 92 °C.
The compound `CCC1(CCOC2CCCCO2)C(=O)N2CC=CC(C(=O)OC)N2C1=O` (stereo not drawn) had a melting point of 96 to 97 °C.
For the compound `CCC1CC(=O)N(CCc2ccc(N)cc2)N=C1c1ccc(OC)c(OC)c1` (stereo not drawn), the melting point stood at 112 °C.
For `CCOC(=O)C1=C(N)NC(N)=C(C(=O)OCC)C1c1ccccc1C(F)(F)F`, the melting point worked out at 191 °C.
`O=C(O)c1ccc(C2(C(=O)Oc3ccc(C(=O)NO)cc3)CCCCC2)cc1` yielded a melting point of 169 to 170 °C.
Take `CNc1c(F)cc2c(=O)c(C(=O)O)cn(-c3cc(N)c(F)cc3F)c2c1C`: the melting point lay within 225 to 228 °C.
As for `C=CCN(C(=O)OCc1ccccc1)c1cc(F)c(-c2ccncc2)c(F)c1`, the figure is 82 to 83 °C.
Regarding `CCC1CCC2(C)C(=CCC3C4CCC(=O)C4(C)CCC32)C1` (stereo not drawn), the melting point was 73 to 75 °C.
On to `CCOC(=O)/C=C/c1cn(-c2ccccc2)nc1OCc1ccc(OCc2nc(-c3ccccc3)oc2C)c(OC)c1`, for which the melting point was 194 to 195 °C.
As for `CCOC(=O)c1cn(-c2ccccc2)nc1OCc1ccc(OCc2nc(-c3ccco3)oc2C)c(OC)c1`, the melting point is 150 to 151 °C.
In turn, `COc1ccc2c3c1c(C)c(-c1ccc(O)cc1)n3CC(CCN1CCN(c3cc(C)ccn3)CC1)O2` (stereo not drawn) came in with a melting point of 193 to 195 °C.
To `CCCc1cn(C)cc(-c2cccc(C(F)(F)F)c2)c1=O` belongs 45 to 47 °C; to `O=C(NCC1CCCCC1)[C@@H]1CCCN(c2cccc3c2C(=O)N(Cc2ccncc2)C3=O)C1`, 172 to 173 °C.
In the case of `C[C@@H]1CO[C@]2(CC[C@@H](OCc3ccccc3)C2)N1C(=O)c1ccccc1`, the melting point fell in the range of 85 to 86 °C.
For the compound `O=C1c2ccccc2C(=O)c2c1c(O)c1ccccc1c2O`, the melting point lay within 214 to 216 °C.
To `Cc1ccc2sc3cc(F)ccc3c(=O)c2c1` belongs 159 to 165 °C.
`CCC(CC)(CC)C(=O)Nc1nn(C)c2c1sc1ncccc12` showed a melting point of 138 to 139 °C.
Regarding `Cc1ncccc1COc1ccc2cc(Cn3cc(CCC(=O)O)c(-c4ccccc4)c3)ccc2c1`, the melting point was in the range of 163 to 164 °C.
Regarding `Cc1noc(NS(=O)(=O)c2ccc(-c3ccccc3)cc2)c1Cl`, the melting point lay within 129 to 132 °C.
Turning to `COc1c(C(O)CNC(C)(C)Cc2ccccc2C)ccc(O)c1O` (stereo not drawn), the melting point was 114 °C.
`CS(=O)(=O)N1CCC(COCc2cc(C(F)(F)F)cc(C(F)(F)F)c2)(c2ccccc2)CC1`: the melting point was in the range of 102 to 104 °C.
To `CCCc1nc(C)n2cnnc2c1Cc1ccc(-c2ccccc2C#N)cc1` belongs 153 °C.
`Cc1cc(C)c(-c2cc3cnc(N)nc3nc2NC(=O)NC(C)(C)C)c(C)c1`: the melting point was 281 to 297 °C.
`O=S(=O)(O)c1ncnn1CC(O)(Cc1ccccc1Cl)C1(Cl)CC1` (stereo not drawn) returned a melting point of 68 to 70 °C.
Regarding `CCCNS(=O)(=O)c1ccc(Nc2nc(OCC3CCCCC3)c3nc[nH]c3n2)cc1`, the melting point was 207 to 208 °C.
As to `O=C(O)c1ccc2nc3sc(-c4ccccc4)cc3c(=O)n2c1`, the melting point lay within 387 to 392 °C.
`COc1cc(OC)cc(N2CCN(C(=O)N(CC(=O)O)c3cc(C)c(C)cc3OC)CC2)c1`: the melting point was 188 to 189 °C.
To `O=S1(=O)N=CN(C2CCCCCCC2)c2cc(Cl)ccc21` belongs 209 to 211 °C; to `CC(C)N1Cc2c(Cl)nc(Cl)nc2C1=O`, 122 to 123 °C; to `CCOC(=O)C(CCCCCc1ccc(Cl)cc1)C(N)=O` (stereo not drawn), 110 to 111 °C.
As for `CON1C=C2N=Nc3cc(C)cnc3N2C1`, the figure is 213 to 214 °C; as for `O=C(O)CC[C@@H](CSc1ccc(Cc2ccccc2)cc1)NC(=O)CCCCCCc1ccccc1`, 89 to 91.5 °C.
To `CCCc1c(OCCCCc2nnn[nH]2)ccc(C(C)=O)c1O` belongs 114 to 115 °C; to `C[C@@H](n1cnc2cc(N)c(F)cc2c1=O)[C@](O)(Cn1cncn1)c1ccc(F)cc1F`, 124 to 125 °C.

In general, melting point refers to the temperature, or range, at which the solid turns liquid.
